Like-named read-outs stand apart in the source and are kept apart here.
Experiments:
[1] = Pharmacokinetics of Aftin-5 in mice after single PO or IP dose; assay type: in vivo; conditions: for Tmax / Cmax / Kp: mouse; for Kp: brain/plasma, read-out: brain/plasma partition coefficient (Kpbrain/plasma)
Description: In addition, pharmacokinetic experiments of Aftin-5 in mice confirmed the ability of the compound to reach the brain. The PK parameters are plotted in Table 3 below.
The brain/plasma partition coefficient (Kpbrain/plasma) was about 0.014 and 0.033 for oral and IP administration, respectively.

IL-6 = IL-6 mRNA in OHSC (RT-qPCR); assay type: cell-based, mice; conditions: 50 μM, 10 days, vs vehicle, P=0.06
Method: (§1) FIG. 10. Plots illustrating the effect of Aftin-5 on relative mRNA expression levels of interleukin-1-beta (IL-1β; (A)), interleukin-6 (IL-6; (B)), TNF-alpha (TNFα; (C)) and interleukin-10 (IL-10; (D)) in organotypic hippocampal slice cultures (OHSC). OHSC culture media […] were replaced by incubation medium containing Aftin-5 (50 μM; A50) or vehicle (0.1% DMSO; Veh). 10 days later, total mRNA in lysate was isolated and purified, cDNAs were then synthesized from […] of total mRNA. cDNAs were amplified by quantitative RT-PCR and the relative expression of specific genes was normalized to the housekeeping gene HPRT1 (2^−ΔCt). Mann-Whitney tests were performed and ***p<0.001 indicates significant differences between Aftin-5 and control conditions. Data expressed as means+/−SEM from q=3 independent experiments with n=4-6 inserts/condition and 10 slices/insert. […]
(§2) The impact of Aftin-5 on gene expression of different biomarkers was determined by measuring mRNA levels of selected BDNF, CREB, PS95, INS Receptor/IGF-1 receptor, IL-1β, IL-6 in OHSC treated chronically with Aftin-5 or in a total brain from mice exposed to Aftin-5 at either 8 or 30 mg/Kg. […] Threshold cycles (Ct) of target gene and cyclophilin A (Ppia−control housekeeping gene) were recorded and gene expression was calculated as 2^−ΔΔCt(ΔΔCt=ΔCttreated−ΔCtcontrol, ΔCt=Cttarget−CtPpia). […]

[2] = test system: GFAP and Iba-1 (microglial/astrocytes phenotype); assay: GFAP and Iba-1 mRNA in OHSC (RT-qPCR); assay type: cell-based, mice; conditions: 50 μM, 10 days
Method: as §1, with “FIG. 9.” for “FIG. 10.”, “of GFAP (left panel)” for “of interleukin-1-beta (IL-1β; (A)), interleukin-6 (IL-6; (B)), TNF-alpha (TNFα; (C))”, “and Iba-1 (right panel)” for “and interleukin-10 (IL-10; (D))”, “mRNA. cDNA” for “mRNA. cDNAs”, “and show no” for “and ***p<0.001 indicates”
as §2

[3] = test system: extracellular Aβ (Aβ1-38, Aβ1-40, Aβ1-42); assay: Extracellular Aβ production in organotypic hippocampal slice cultures (MSD sandwich immunoassay); assay type: cell-based, mice
Method: Organotypic hippocampal slice cultures (OHSC) were prepared from newborn (P0-P3) C57B16 or for transgenic 3×Tg-AD mice and were cultured according the interface method (Gogolla et al., 2006). OHSC were kept for 7 days in vitro (div) at 37° C. in a humidified atmosphere (5% CO2) before treatment. Medium was changed every other day.
For acute exposure, neurons were exposed to various concentration of Aftin-5 for 18 hours for acute exposure. […]
All Aβ peptides assays in the samples were performed using V-PLEX Aβ Peptide Panel 1 (4G8) Kit (MSD Technologies_K15199E-1). All plates were read on the SECTOR Imager 2 400 (MSD Technologies). The Aβ peptides assay is based on the principle of the sandwich immunoassay. All assays have followed strictly the protocol kit and all reagents were from Meso Scale Discovery. Briefly, a 96-well plate having 4 spots pre-coated with the corresponding antibodies is provided by MSD Technology (4-spot MULTI-SPOT plates). Before adding the samples, a first saturation step is required. Once the plate is satured and washed, 25 μL of sample (or calibrators) per well are loaded, then 25 μL of the Detection Antibody solution (MSD SULFO-TAG). The plate is incubated for 2 hours. At the end of the incubation, the plate is washed and then a chemical solution (Read buffer 2×) is added allowing electrochemiluminescence. After a short incubation (5 min) at room temperature, the plate is read on the SECTOR Imager 2400. The instrument measures the intensity of the light electrochemiluminescence.

[4] = plasma, IP single dose 10 mg/kg
[5] = chronic treatment of OHSC (10 days)

SMILES: CC[C@H](CO)Nc1nc(N(C)c2ccccc2)c2ncn(C(C)C)c2n1 [Aftin-5]
- AUC0-∞ ([1]; brain, IP single dose 10 mg/kg): 441.51 nMh
- t^1/2 ([1]; brain, IP single dose 10 mg/kg): 0.6 h
- AUC0-∞ ([1]; brain, PO single dose 5 mg/kg): 115.25 nMh
- t^1/2 ([1]; brain, PO single dose 5 mg/kg): 1.8 h
- Tmax ([1]; brain, IP single dose 10 mg/kg): 4.98 min
- Tmax ([1]; brain, PO single dose 5 mg/kg): 15 min
- Cmax ([1]; brain, ip, 10 mg/kg, IP single dose 10 mg/kg): ~807 nM
- Cmax ([1]; brain, po, 5 mg/kg, PO single dose 5 mg/kg): ~44.9 nM
- Kp ([1]; IP administration, single dose 10 mg/kg): ~0.033
- Kp ([1]; oral administration, single dose 5 mg/kg): ~0.014
- Tmax [1, 4]: 4.98 min
- Tmax ([1]; plasma, PO single dose 5 mg/kg): 15 min
- Cmax ([1]; plasma, ip, 10 mg/kg, IP single dose 10 mg/kg): 22600 nM
- Cmax ([1]; plasma, po, 5 mg/kg, PO single dose 5 mg/kg): 3890 nM
- AUC0-∞ [1, 4]: 13577.63 nMh
- t^1/2 [1, 4]: ~1.2 h
- IL-6 mRNA synthesis (IL-6): do not achieve significance
- microglial/astrocytes phenotype (GFAP, Iba-1 mRNA) [2]: does not affect
- modulation of Aβ1-42/Aβ1-40 ratio induced by Aftin-5 in presence of γ-secretase inhibitor BMS ([3]; OHSC, Aftin-5 50 μM with BMS (10 μM), 10 days): no changes
- Aβ1-38 [3, 5]: decrease
- Aβ1-40 [3, 5]: remained unchanged
- concentration ratio Aβ1-42/Aβ1-40 [3, 5]: slight but significant increase
- production of Aβ1-42 ([3]; chronic treatment of OHSC (10 days), P<0.0001): increase
